Results taken from PMC5218480 (PLoS ONE, 2017).

Tested on: MV-4-11 cells
Experiment: Gene expression microarray analysis (Affymetrix PrimeView) and GSEA
Type: cell-based, human
Design: RFU PODN (11730768_x_at) / Fold change /veh PODN (11730768_x_at) / RFU LINC00158 (11744669_a_at) / Fold change /veh LINC00158 (11744669_a_at) / RFU DUSP10 (11751237_a_at) / Fold change /veh DUSP10 (11751237_a_at) / RFU ID3 (11757404_x_at) / Fold change /veh ID3 (11757404_x_at) / RFU PLEKHG5 (11737974_s_at) / Fold change /veh PLEKHG5 (11737974_s_at) / RFU LRRC4B (11730491_at) / Fold change /veh LRRC4B (11730491_at) / RFU GIMAP4 (11747438_a_at) / Fold change /veh GIMAP4 (11747438_a_at) / RFU KRT8 (11758183_x_at) / Fold change /veh KRT8 (11758183_x_at) / RFU CNN1 (11734310_a_at) / Fold change /veh CNN1 (11734310_a_at) / RFU VPS37D (11726825_at) / Fold change /veh VPS37D (11726825_at) / RFU C10orf10 (11716522_x_at) / Fold change /veh C10orf10 (11716522_x_at) / RFU KIR2DL2 /// KIR2DL4 /// KIR2DL5A /// KIR2DL5B /// KIR2DS1 /// KIR2DS2 /// KIR2DS3 /// KIR2DS4 /// KIR3DL3 /// KIR3DL3 /// KIR3DS1 (11738374_at) / Fold change /veh KIR2DL2 /// KIR2DL4 /// KIR2DL5A /// KIR2DL5B /// KIR2DS1 /// KIR2DS2 /// KIR2DS3 /// KIR2DS4 /// KIR3DL3 /// KIR3DL3 /// KIR3DS1 (11738374_at) / RFU C1QL1 (11718748_at) / Fold change /veh C1QL1 (11718748_at) / RFU TMPRSS4 (11747572_a_at) / Fold change /veh TMPRSS4 (11747572_a_at) / RFU HAMP (11756126_x_at) / Fold change /veh HAMP (11756126_x_at) / RFU RNFT2 (11725882_a_at) / Fold change /veh RNFT2 (11725882_a_at) / RFU NR4A2 (11747474_a_at) / Fold change /veh NR4A2 (11747474_a_at) / RFU ABCC12 (11746883_a_at) / Fold change /veh ABCC12 (11746883_a_at) / RFU TMEM136 (11760407_x_at) / Fold change /veh TMEM136 (11760407_x_at) / RFU CLDN22 /// WWC2 (11732394_at) / Fold change /veh CLDN22 /// WWC2 (11732394_at) / RFU HLA-DPB1 (11760878_x_at) / Fold change /veh HLA-DPB1 (11760878_x_at) / RFU SPINT1 (11716480_a_at) / Fold change /veh SPINT1 (11716480_a_at) / RFU GAP43 (11754022_s_at) / Fold change /veh GAP43 (11754022_s_at) / RFU A4GNT (11735810_at) / Fold change /veh A4GNT (11735810_at) / RFU PRB3 (11715151_x_at) / Fold change /veh PRB3 (11715151_x_at) / RFU TUBB4B (11761932_at) / Fold change /veh TUBB4B (11761932_at) / RFU CAPN14 (11732068_a_at) / Fold change /veh CAPN14 (11732068_a_at) / RFU TMCC2 (11721928_a_at) / Fold change /veh TMCC2 (11721928_a_at) / RFU IRGQ (11745062_a_at) / Fold change /veh IRGQ (11745062_a_at) / RFU FAM174B (11720279_a_at) / Fold change /veh FAM174B (11720279_a_at) / RFU TMPRSS4 (11748680_a_at) / Fold change /veh TMPRSS4 (11748680_a_at) / RFU FAM212B (11763350_a_at) / Fold change /veh FAM212B (11763350_a_at) / RFU PLEKHG5 (11743358_a_at) / Fold change /veh PLEKHG5 (11743358_a_at) / RFU ZSCAN30 (11745921_a_at) / Fold change /veh ZSCAN30 (11745921_a_at) / RFU CMKLR1 (11741424_a_at) / Fold change /veh CMKLR1 (11741424_a_at) / RFU LOC101060620 /// MAPK8IP1 (11723275_at) / Fold change /veh LOC101060620 /// MAPK8IP1 (11723275_at) / RFU SPTSSB (11747773_x_at) / Fold change /veh SPTSSB (11747773_x_at) / RFU PRSS12 (11739890_at) / Fold change /veh PRSS12 (11739890_at) / RFU BIN1 (11741810_x_at) / Fold change /veh BIN1 (11741810_x_at) / RFU WNT11 (11732464_a_at) / Fold change /veh WNT11 (11732464_a_at) / RFU C10orf10 (11716521_a_at) / Fold change /veh C10orf10 (11716521_a_at) / RFU C5orf56 (11738089_at) / Fold change /veh C5orf56 (11738089_at) / RFU CYB561 (11721691_x_at) / Fold change /veh CYB561 (11721691_x_at) / RFU ANKRD19P (11752326_a_at) / Fold change /veh ANKRD19P (11752326_a_at) / RFU OR2T12 /// OR2T33 /// OR2T8 (11738714_s_at) / Fold change /veh OR2T12 /// OR2T33 /// OR2T8 (11738714_s_at) / RFU VCAN (11748164_a_at) / Fold change /veh VCAN (11748164_a_at) / RFU JSRP1 (11732532_at) / Fold change /veh JSRP1 (11732532_at) / RFU KRTAP10-11 (11738290_x_at) / Fold change /veh KRTAP10-11 (11738290_x_at) / RFU MYO3A (11730013_a_at) / Fold change /veh MYO3A (11730013_a_at) / RFU EBF3 (11725865_a_at) / Fold change /veh EBF3 (11725865_a_at) / RFU CAMK2N1 (11719241_x_at) / Fold change /veh CAMK2N1 (11719241_x_at) / RFU C5orf56 (11738088_a_at) / Fold change /veh C5orf56 (11738088_a_at) / RFU OLFML3 (11715873_a_at) / Fold change /veh OLFML3 (11715873_a_at) / RFU LOC100653217 /// NTM (11731650_a_at) / Fold change /veh LOC100653217 /// NTM (11731650_a_at) / RFU MAPK11 (11762145_a_at) / Fold change /veh MAPK11 (11762145_a_at) / RFU FIZ1 (11724087_x_at) / Fold change /veh FIZ1 (11724087_x_at) / RFU OASL (11726364_x_at) / Fold change /veh OASL (11726364_x_at) / RFU SOX15 (11748057_x_at) / Fold change /veh SOX15 (11748057_x_at) / RFU CD79A (11719716_a_at) / Fold change /veh CD79A (11719716_a_at) / RFU HIST1H1D (11736915_at) / Fold change /veh HIST1H1D (11736915_at) / RFU CASKIN2 (11723855_a_at) / Fold change /veh CASKIN2 (11723855_a_at) / RFU LOC730098 (11760151_x_at) / Fold change /veh LOC730098 (11760151_x_at) / RFU OR4N2 (11742367_at) / Fold change /veh OR4N2 (11742367_at) / RFU PRRT2 (11749266_a_at) / Fold change /veh PRRT2 (11749266_a_at) / RFU SNX32 (11753110_a_at) / Fold change /veh SNX32 (11753110_a_at) / RFU CDHR5 (11726645_a_at) / Fold change /veh CDHR5 (11726645_a_at) / RFU RCAN1 (11760418_a_at) / Fold change /veh RCAN1 (11760418_a_at) / RFU FAM167A (11723789_a_at) / Fold change /veh FAM167A (11723789_a_at) / RFU FAM26E (11764081_at) / Fold change /veh FAM26E (11764081_at) / RFU ISYNA1 (11749810_s_at) / Fold change /veh ISYNA1 (11749810_s_at) / RFU ACY1 (11761880_at) / Fold change /veh ACY1 (11761880_at) / RFU 11764098_at / Fold change /veh 11764098_at / RFU SAMD14 (11745864_x_at) / Fold change /veh SAMD14 (11745864_x_at) / RFU NPB (11741838_a_at) / Fold change /veh NPB (11741838_a_at) / RFU TMPRSS6 (11731388_a_at) / Fold change /veh TMPRSS6 (11731388_a_at) / RFU KRTAP10-2 (11738614_at) / Fold change /veh KRTAP10-2 (11738614_at) / RFU ARHGAP8 /// PRR5-ARHGAP8 (11727945_x_at) / Fold change /veh ARHGAP8 /// PRR5-ARHGAP8 (11727945_x_at) / RFU KRTAP5-7 /// NADSYN1 (11734609_at) / Fold change /veh KRTAP5-7 /// NADSYN1 (11734609_at) / RFU RASL12 (11751679_a_at) / Fold change /veh RASL12 (11751679_a_at) / RFU CDKN2B (11736163_a_at) / Fold change /veh CDKN2B (11736163_a_at) / RFU PRF1 (11729649_at) / Fold change /veh PRF1 (11729649_at) / RFU, ZNF638 /// ZNF638-IT1 / Fold change vs veh, ZNF638 /// ZNF638-IT1 / RFU, PANK3 / Fold change vs veh, PANK3 / RFU, SH3YL1 / Fold change vs veh, SH3YL1 / RFU, ZEB2 / Fold change vs veh, ZEB2 / RFU, NRIP1 / Fold change vs veh, NRIP1 / RFU, PTTG1IP / Fold change vs veh, PTTG1IP / RFU, CAPN2 / Fold change vs veh, CAPN2 / RFU, MED14 / Fold change vs veh, MED14 / RFU, SNORA58 / Fold change vs veh, SNORA58 / RFU, C1orf63 / Fold change vs veh, C1orf63 / RFU, LRRFIP1 / Fold change vs veh, LRRFIP1 / RFU, NDUFAF7 / Fold change vs veh, NDUFAF7 / RFU, SLC12A2 / Fold change vs veh, SLC12A2 / RFU, IBTK / Fold change vs veh, IBTK / RFU, ESF1 / Fold change vs veh, ESF1 / Fold change vs veh, TMEM50B / RFU, TAOK1 / Fold change vs veh, TAOK1 / RFU, ACBD3 / Fold change vs veh, ACBD3 / RFU, TMA16 / Fold change vs veh, TMA16 / RFU, RWDD3 / Fold change vs veh, RWDD3 / RFU, BCAT1 / Fold change vs veh, BCAT1 / RFU, EDEM3 / Fold change vs veh, EDEM3 / RFU, TMEM33 / Fold change vs veh, TMEM33 / RFU, WDR75 / Fold change vs veh, WDR75 / RFU, AHCTF1 / Fold change vs veh, AHCTF1 / RFU, TFRC / Fold change vs veh, TFRC / RFU, ZDHHC17 / Fold change vs veh, ZDHHC17 / RFU, NOM1 / Fold change vs veh, NOM1 / RFU, ARL8B / Fold change vs veh, ARL8B / RFU, ZBTB11 / Fold change vs veh, ZBTB11 / RFU, TAMM41 / Fold change vs veh, TAMM41 / RFU, KIAA1704 /// LOC100996395 / Fold change vs veh, KIAA1704 /// LOC100996395 / RFU, ING1 / Fold change vs veh, ING1 / RFU, TRMT61B / Fold change vs veh, TRMT61B / RFU, FUBP3 / Fold change vs veh, FUBP3 / RFU, TP53 / Fold change vs veh, TP53 / RFU, TNKS2 / Fold change vs veh, TNKS2 / RFU, ZFP14 / Fold change vs veh, ZFP14 / RFU, ACTR2 / Fold change vs veh, ACTR2 / RFU, PPP3R1 / Fold change vs veh, PPP3R1 / RFU, PIK3R1 / Fold change vs veh, PIK3R1 / RFU, HNRNPA1 / Fold change vs veh, HNRNPA1 / RFU, RNF170 / Fold change vs veh, RNF170 / RFU, ZNF28 / Fold change vs veh, ZNF28 / RFU, RNGTT / Fold change vs veh, RNGTT / RFU, OGT / Fold change vs veh, OGT / RFU, BRD1 / Fold change vs veh, BRD1 / RFU, MARS / Fold change vs veh, MARS / RFU, ZNF655 / Fold change vs veh, ZNF655 / RFU, FAHD1 / Fold change vs veh, FAHD1 / RFU, BDP1 / Fold change vs veh, BDP1 / RFU, LRRCC1 / Fold change vs veh, LRRCC1 / RFU, ARID1A / Fold change vs veh, ARID1A / RFU, ZNF146 / Fold change vs veh, ZNF146 / RFU, ZNF330 / Fold change vs veh, ZNF330 / RFU, GPN3 / Fold change vs veh, GPN3 / RFU, C9orf123 / Fold change vs veh, C9orf123 / RFU, N4BP2L2 / Fold change vs veh, N4BP2L2 / RFU, ARFIP1 / Fold change vs veh, ARFIP1 / RFU, FAM179B / Fold change vs veh, FAM179B / RFU, BCL10 / Fold change vs veh, BCL10 / RFU, UHRF1BP1L / Fold change vs veh, UHRF1BP1L / RFU, BET1 / Fold change vs veh, BET1 / RFU, CNOT2 / Fold change vs veh, CNOT2 / RFU, ZNF268 / Fold change vs veh, ZNF268 / Fold change vs veh, ZNF507 / RFU, DGCR2 / Fold change vs veh, DGCR2 / RFU, WDSUB1 / Fold change vs veh, WDSUB1 / Fold change vs veh, HSP90B1 /// MIR3652 / RFU, ADSS / Fold change vs veh, ADSS / RFU, GK / Fold change vs veh, GK / RFU, ZNF148 / Fold change vs veh, ZNF148 / RFU, TAF9 / Fold change vs veh, TAF9 / RFU, SLC1A5 / Fold change vs veh, SLC1A5 / RFU, SLMO2 / Fold change vs veh, SLMO2 / RFU, ABCC4 / Fold change vs veh, ABCC4 / RFU, LOC101060439 /// RAP1B / Fold change vs veh, LOC101060439 /// RAP1B / RFU, RFX7 / Fold change vs veh, RFX7 / RFU, GTPBP10 / Fold change vs veh, GTPBP10 / RFU, CNEP1R1 / Fold change vs veh, CNEP1R1 / RFU, BIVM-ERCC5 /// ERCC5 / Fold change vs veh, BIVM-ERCC5 /// ERCC5 / RFU, ILF3 / Fold change vs veh, ILF3 / RFU 11762660_at / Fold change /veh 11762660_at / RFU VCAN (11757783_s_at) / Fold change /veh VCAN (11757783_s_at) / RFU DDX43 (11728927_at) / Fold change /veh DDX43 (11728927_at) / RFU KRT8 (11758188_x_at) / Fold change /veh KRT8 (11758188_x_at) / RFU NKD1 (11759106_at) / Fold change /veh NKD1 (11759106_at) / RFU SRD5A1 (11742802_a_at) / Fold change /veh SRD5A1 (11742802_a_at) / RFU TPSAB1 /// TPSB2 (11721975_s_at) / Fold change /veh TPSAB1 /// TPSB2 (11721975_s_at) / RFU GSTM3 (11746129_a_at) / Fold change /veh GSTM3 (11746129_a_at) / RFU IL23R (11737362_x_at) / Fold change /veh IL23R (11737362_x_at) / RFU TMEM51 (11727254_a_at) / Fold change /veh TMEM51 (11727254_a_at) / RFU PIWIL2 (11732686_x_at) / Fold change /veh PIWIL2 (11732686_x_at) / RFU ORM1 (11744905_x_at) / Fold change /veh ORM1 (11744905_x_at) / RFU CCDC152 (11743942_at) / Fold change /veh CCDC152 (11743942_at) / RFU ECM1 (11717891_a_at) / Fold change /veh ECM1 (11717891_a_at) / RFU IL23R (11748794_a_at) / Fold change /veh IL23R (11748794_a_at) / RFU TNFAIP8L3 (11732012_x_at) / Fold change /veh TNFAIP8L3 (11732012_x_at) / RFU MBOAT4 (11741988_at) / Fold change /veh MBOAT4 (11741988_at) / RFU 11764193_at / Fold change /veh 11764193_at / RFU TMEM53 (11763286_at) / Fold change /veh TMEM53 (11763286_at) / RFU MAGEB2 (11727129_at) / Fold change /veh MAGEB2 (11727129_at) / RFU TMEM200A (11744735_a_at) / Fold change /veh TMEM200A (11744735_a_at) / RFU CCDC152 (11751479_a_at) / Fold change /veh CCDC152 (11751479_a_at) / RFU FAM211A (11726209_a_at) / Fold change /veh FAM211A (11726209_a_at) / RFU RGS16 (11746705_a_at) / Fold change /veh RGS16 (11746705_a_at) / RFU VCAN (11755009_s_at) / Fold change /veh VCAN (11755009_s_at) / RFU RHOB (11743442_s_at) / Fold change /veh RHOB (11743442_s_at) / RFU RGS16 (11720943_a_at) / Fold change /veh RGS16 (11720943_a_at) / RFU RGS16 (11720944_at) / Fold change /veh RGS16 (11720944_at) / RFU, VPS4B / Fold change vs veh, VPS4B / RFU, CREB1 / Fold change vs veh, CREB1 / RFU, DNAJC13 / Fold change vs veh, DNAJC13 / RFU, GNAQ / Fold change vs veh, GNAQ / RFU, CDK5R1 / Fold change vs veh, CDK5R1 / RFU, ZRANB3 / Fold change vs veh, ZRANB3 / RFU, CUL4A / Fold change vs veh, CUL4A / RFU, CCNY / Fold change vs veh, CCNY / RFU, UFL1 / Fold change vs veh, UFL1 / RFU, COG3 / Fold change vs veh, COG3 / RFU, DIAPH2 / Fold change vs veh, DIAPH2 / RFU, SKA2 / Fold change vs veh, SKA2 / RFU, AFF3 / Fold change vs veh, AFF3 / RFU, LMF1 / Fold change vs veh, LMF1 / RFU, IPO11 / Fold change vs veh, IPO11 / RFU, DFFB / Fold change vs veh, DFFB / RFU, FOXP1 / Fold change vs veh, FOXP1 / RFU, CARD8 / Fold change vs veh, CARD8 / RFU, STRN3 / Fold change vs veh, STRN3 / RFU, ADK / Fold change vs veh, ADK / RFU, RASSF2 / Fold change vs veh, RASSF2 / RFU, WIPF1 / Fold change vs veh, WIPF1 / RFU, LARP1B / Fold change vs veh, LARP1B / RFU, RASA1 / Fold change vs veh, RASA1 / RFU, RB1 / Fold change vs veh, RB1 / RFU, PPFIA1 / Fold change vs veh, PPFIA1 / RFU, MAT2A / Fold change vs veh, MAT2A / RFU, CCT5 / Fold change vs veh, CCT5 / RFU, WDR92 / Fold change vs veh, WDR92 / RFU, CUX1 / Fold change vs veh, CUX1 / RFU, TTC7A / Fold change vs veh, TTC7A / RFU, TMEM135 / Fold change vs veh, TMEM135 / RFU, DEPTOR / Fold change vs veh, DEPTOR / RFU, CPM / Fold change vs veh, CPM / RFU, DNAJB6 / Fold change vs veh, DNAJB6 / RFU, CACNA2D3 / Fold change vs veh, CACNA2D3 / RFU, DTX4 / Fold change vs veh, DTX4 / RFU, TFCP2 / Fold change vs veh, TFCP2 / RFU, GMCL1 /// GMCL1P1 / Fold change vs veh, GMCL1 /// GMCL1P1 / RFU, AEBP2 / Fold change vs veh, AEBP2 / RFU, SNHG1 /// SNORD22 /// SNORD25 /// SNORD26 /// SNORD27 /// SNORD28 /// SNORD29 /// SNORD31 / Fold change vs veh, SNHG1 /// SNORD22 /// SNORD25 /// SNORD26 /// SNORD27 /// SNORD28 /// SNORD29 /// SNORD31 / Fold change (Aza/veh), C12orf56 (ProbeSet 11735607_a_at) / Fold change (ACY-1035/veh), C12orf56 (ProbeSet 11735607_a_at) / Fold change (Aza/veh), FGFR1OP (ProbeSet 11751329_s_at) / Fold change (ACY-1035/veh), FGFR1OP (ProbeSet 11751329_s_at) / Fold change (Aza/veh), VPS36 (ProbeSet 11739960_a_at) / Fold change (ACY-1035/veh), VPS36 (ProbeSet 11739960_a_at) / RFU SYPL1 (11715823_x_at) / Fold change /veh SYPL1 (11715823_x_at) / RFU IGFBP7 (11715501_s_at) / Fold change /veh IGFBP7 (11715501_s_at) / RFU REEP3 (11722064_at) / Fold change /veh REEP3 (11722064_at) / RFU IGLL1 (11728026_x_at) / Fold change /veh IGLL1 (11728026_x_at): dose or concentration left out as unconfirmed
Details: MV-4-11 cells, 48 hours

Structure (SMILES): Nc1ccc(-c2cccs2)cc1NC(=O)c1ccc2c(c1)cc(C1CC1)n2CCN1CCOCC1 [ACY-1035]
- Fold change /veh CASKIN2 (11723855_a_at): 1.05
